Results published in patent US8980222B2, “Diagnostic use of endothelin ETB receptor agonists and ETA receptor antagonists in tumor imaging” (The Board of Trustees of the University of Illinois, priority 2004, dated 2015).
Where two headings read alike, the source gives them in different places. Non-standard residues stand in square brackets, D forms with d. Residues, ends and D or L forms follow the SMILES beside them.

Assays:
breast tumor = experiment: Breast tumor blood perfusion by Laser Doppler Flowmetry in MNU-induced mammary tumor rats; type: in vivo, rat; settings: for Maximal increase in tumor perfusion (%): Laser Doppler Flowmetry, breast tumor-bearing rats
Method: MNU or saline treatments were carried out as intraperitoneal injections three months prior to the study. Rats were regularly palpated from four weeks after onset of the treatments. When the tumors reached an optimal size (i.e., 4-8 mm in diameter), the experiments were begun. Systemic hemodynamic and regional circulation parameters were determined at baseline, 30, 60, and 120 minutes after initiating ET-1 (50 ng/kg/min) infusion.
Blood perfusion to the mammary gland of the rats was measured using laser Doppler flowmetry as described in literature procedures (23, 24). The animals were shaved around the nipples. The skin surrounding the mammary glands was dissected out as a lambeau about 6 cm wide and 4 cm long. A standard model fiber optic probe was applied to the surface of the lambeau, and secured to the tissue by double stick tape. The lambeau was placed in a metal holder and taped down to prevent movement, then connected to a Periflux PF2b 4000 Laser Doppler Flowmetry (Perimed KB, Stockholm, Sweden). The time constant was set at 1.5 seconds and the bandwidth was set at 4 KHz.
A preclinical model of MNU-induced primary autochthonous mammary tumor was used in the following studies. This tumor model of breast cancer offers several advantages over other models (Rai et al., Cancer Chemother. Parmaacol., 51(1):21-8 (2003)). Virgin female Sprague Dawley rats were used for the study. At 48 days of age, rats received a single injection of N-methyl nitrosourea (MNU; 50 mg/kg, i.v.). Eighty percent of the animals developed tumors two months after MNU injection and 10% of total rats may die or loose weight due to MNU injection or develop a tumor after several months. Tumor appearance and location is monitored by manual mammary gland palpation and the tumor diameter is measured with a digital caliper. Rats with a tumor volume of 200-500 mm^3 were selected for the experiments.
FIG. 2 illustrates the effect of IRL-1620 on breast tumor perfusion (N=5/group). Breast tumor-bearing rats were anesthetized and mammary tumor perfusion was recorded using a Laser Doppler Flowmetry for three hours. A 15-minute stable baseline recording was obtained before the administration of saline or IRL-1620 1, 3, or 9 nmol/kg via the tail vein in a final volume of 0.2 ml. Tumor perfusion was recorded for three hours (*p<0.001 compared to vehicle-treated rats).
Animals received BQ 788 ([…]) or saline via tail vein 15 minutes before the administration of IRL-1620 (3 nmol/kg) and tumor perfusion was recorded for three hours (*p<0.001 compared to BQ 788-administered rats). Studies also were conducted to determine the effect of IRL-1620 on blood perfusion in normal mammary tissue.

ETA and ETB receptors = settings: cited from earlier work
tumor [1] = settings: Sonveaux et al. 2004; cited from earlier work
tumor [2] = experiment: Tumor blood flow with ETA receptor antagonists; settings: in vivo
Method: A study using BMS182874, an ETA receptor antagonist, also was conducted.

Compound	Maximal increase in tumor perfusion (%) (breast tumor)	Selectivity for ETB receptors than ETA receptors (ETA and ETB receptors)	further results
CC[C@H](C)[C@H](NC(=O)[C@H](CC(=O)O)NC(=O)[C@H](CC(C)C)NC(=O)[C@H](Cc1c[nH]cn1)NC(=O)[C@@H]1CSSC[C@H](N)C(=O)N[C@@H](CO)C(=O)N[C@H]2CSSC[C@H](NC(=O)[C@H](CCC(=O)O)NC(=O)[C@H](CCCCN)NC(=O)[C@H](CC(=O)O)NC(=O)[C@H](CCSC)NC(=O)[C@H](CC(C)C)NC(=O)[C@H](CO)NC(=O)[C@H](CO)NC2=O)C(=O)N[C@@H](C(C)C)C(=O)N[C@@H](Cc2ccc(O)cc2)C(=O)N[C@@H](Cc2ccccc2)C(=O)N1)C(=O)N[C@H](C(=O)N[C@@H](Cc1c[nH]c2ccccc12)C(=O)O)[C@@H](C)CC [ET-1, Endothelin-1]	46.19%	equal affinity	Breast tumor perfusion after exogenous infusion (breast tumor; rat, in vivo): transient increase; Perfusion to major organs (breast tumor; rat, in vivo): without altering perfusion
[Ala^1, 3, 11, 15]-ET-1 (ASASSLMDKEAVYFAHLDIIW; Endothelin-1; UniProt P05305 53-73, looked up, variant C1A C3A C11A C15A) [4 Ala ET-1]	53.96%	1700 times	
ET-3: ET agonist three times more selective for ETB receptors than ETA receptors	47.99%	three times more selective	
CC(C)C[C@@H]1NC(=O)[C@@H](C(C)C)NC(=O)[C@@H]2CCCN2C(=O)[C@@H](CC(=O)O)NC(=O)[C@@H](Cc2c[nH]c3ccccc23)NC1=O [BQ123] (cyclo(L[dW][dD]P[dV]))			Tumor blood flow (tumor [1]): significantly improved
CCCC[C@@H](NC(=O)[C@@H](Cc1cn(C(=O)OC)c2ccccc12)NC(=O)[C@H](CC(C)(C)C)NC(=O)N1[C@H](C)CCC[C@@H]1C)C(=O)O [BQ788, N-cis-2,6-dimethylpiperidinocarbonyl-L-gamma-methylleucyl-D-1-methoxycarbonyltrptophanyl-D-Nle]			Effect of antagonist on IRL-1620 induced tumor blood perfusion (breast tumor; BQ 788 0.5 μg/kg 15 minutes before IRL-1620 3 nmol/kg): completely blocked; Effect of antagonist on ET-1 induced increase in tumor blood flow (breast tumor; ET-1 induced): completely blocked
Cc1noc(NS(=O)(=O)c2cccc3c(N(C)C)cccc23)c1C [BMS182874]			Tumor blood flow (tumor [2]): increased the tumor blood flow
